Values quoted from earlier work, collected in US20050201949A1, “Pharmaceutical formulations” (priority 2003, published 2005).
Structures can show the parent of a compound that is named as a salt.

Settings: solid tablets with a lactose excipient; Maillard reaction postulated

Degradation in the presence of lactose excipient: undergoes degradation
SMILES: CNCCC(Oc1ccc(C(F)(F)F)cc1)c1ccccc1 (stereo not shown) [fluoxetine hydrochloride]
